{"source": "patent US20200064357A1", "about": "“METHODS FOR DETERMINING AND MONITORING GASTROINTESTINAL INFLAMMATION” (Protagonist Therapeutics, Inc., priority 2016, published 2020)", "key": {"[1]": {"system": "Sprague-Dawley rats", "experiment": "Protein biomarkers in feces, TNBS rat colitis model, ELISA (Example E2)", "type": "in vivo", "conditions": "31 mg/kg/day, normalized to total protein, vs vehicle", "description": "The animals were grouped into sham, vehicle, and Peptide 993 treatment at 31 mg/kg/day. Feces were collected from the distal colon of rats and were immediately frozen at the time of necropsy. The feces samples were weighed and homogenized in extraction buffer (PBS pH 7.4 containing Pierce Protease Inhibitors, 3× volume:weight). The samples were incubated on ice for 90 minutes, with intermittent vortexing for complete homogenization. After centrifugation at 3000 g at 4 C, the homogenates were transferred to fresh tubes and subjected to another centrifugation at 14000 g at 4 C. The cleared supernatants were saved in multiple aliquots and stored at −80 C until analysis.\nThe total protein in each sample was quantified using BCA assay. LCN2, MPO, and MMP-9 protein concentration in the feces samples were analysed using commercially available rat ELISA kits. For LCN2, the samples were diluted at different ratios with assay dilution buffer to capture the large variation in concentration amongst the different treatment groups. The dilution ratios used were 1:20 (sham), 1:200, 1:1000, 1:2000, and 1:4000 (vehicle and Peptide 993).\nThe concentration of LCN2 was normalized to the total protein measured for the sample. […] Statistical analysis was performed using 1-Way-ANOVA with Dunnetts's multiple comparison.\nFecal homogenates were analyzed for Myeloperoxidase (MPO) concentration using the Rat MPO ELISA kit (Catalog # HK105, Hycult biotech). The samples were used at dilutions ranging from 1:20 to 1:1000, to ensure that the measurements were within the range and sensitivity of the kit. […] A linear equation was used to fit the Standard Curve and the fitting parameters were used to calculate the concentration of MPO. The concentration of MPO for each sample was normalized to the total protein measured for the sample as described above. […] Statistical analyses were performed using 1-Way-ANOVA with Dunnetts's multiple comparison."}, "[2]": {"system": "Sprague-Dawley rats", "experiment": "miR-223-3p expression in distal colon and serum, TNBS rat colitis model (Example E3)", "type": "in vivo", "conditions": "31 mg/kg/day, vs vehicle group", "description": "(§1) Animals from the sham group (without TNBS exposure), the vehicle group (exposed to TNBS and treated with vehicle only) and the group treated with Peptide 993 (exposed to TNBS and treated with Peptide 993 at 31 mg/kg/day) were subjected for gene expression and miroRNA analysis\nFor extraction of microRNA from distal colon homogenate, the RNeasy Plus Mini Kit and the RNeasy MinElute Cleanup Kit (Qiagen) were used. For extraction of microRNA from serum, miRNeasy Serum/Plasma Kit (Qiagen) was used. To verify uniformity of microRNA extraction, a synthetic microRNA cel-miR-39-3p, at a fixed concentration, was spiked into both distal colon homogenates and serum samples. The microRNAs purified from distal colon and serum was used in the Advanced miRNA cDNA Synthesis Kit (Applied Biosystems) to obtain cDNA templates for the quantative real time PCR. The expression of miR-223-3p, a microRNA known to negatively regulate CLDN8 gene expression, was measured using TaqMan Advanced miRNA assay (Applied Biosystems). The endogenous control miR-16-5p was used for normalization in the distal colon, and the endogenous control miR-24-3p was used for normalization in the serum. Relative expression of miR-223-3p was calculated using the normalized Ct values. […]"}, "[3]": {"system": "Sprague-Dawley rats", "experiment": "Biomarker gene expression in distal colon, TNBS rat colitis model, quantitative real time PCR (Example E3)", "type": "in vivo", "conditions": "31 mg/kg/day, normalized to HPRT1, vs vehicle group", "description": "as §1\nFor extraction of total RNA from the distal colons, tissue samples stored at −20° C. in the buffer RNAlater, were thawed and homogenized in RLTplus Buffer (Qiagen) at 20× volume:wt, then subsequently purified using the RNeasy Plus Mini Kit (Qiagen). The concentration of the total RNA was measured and the quality of the RNAs was verified on a gel. The total RNA was used in QuantiTect Reverse Transcription Kit (Qiagen) to obtain cDNA templates for the quantative real time PCR. The expression of the genes LCN2 (Lipocalin 2), S100A8 (a subunit of calprotectin) and CLDN8 (Claudin 8 of the claudin family of tight junction proteins) were measured using Taqman and TaqMan Fast Advanced Master Mix (Applied Biosystems). The threshold cycle number (Ct) values, that are indicative of abundance of template, were normalized using the endogenous control gene HPRT1. The Relative expression of each gene was calculated using the normalized Ct values. Statistical analysis of relative expression was performed using One-way ANOVA method (with Dunnett's multiple comparisons) to compare the variations Vs Group 2."}, "[4]": {"system": "Sprague-Dawley rats", "experiment": "IL-23-directed cytokines in distal colon of 5% DSS-induced acute colitis rats, qRT-PCR and ELISA (Example E4)", "type": "in vivo, rat", "description": "In the second model, acute colitis was induced in Sprague-Dawley rats by ad libitum access to 5% DSS dissolved in drinking water every day until analysis at day five. The animals were grouped into sham+vehicle (PO TID), DSS+vehicle (PO TID), and DSS+Peptide 993 treatment at 61 mg/kg/day (PO TID+in drinking water).\nExpression of genes encoding IL-17A, IL-17F, and IL-22 was quantified by quantitative reverse transcription polymerase chain reaction (qRT-PCR), and production of IL-22 protein was quantified by ELISA. Relative expression was normalized to that of HPRT1; and values were determined as geometric mean±95% confidence interval. Protein concentration is shown as mean±SD. Statistical significance was assessed by One-way ANOVA with post-hoc Dunnett's vs. Vehicle control: *p≤0.05; **p≤0.01; ***p≤0.001; ns, not significant."}, "[5]": {"conditions": "DSS rats, 61 mg/kg/day oral, distal colon, normalized to HPRT1"}}, "note": "“Also recorded” adds a separate entry of the source."}
{"compound": "CC(=O)NC(CCCNC(=N)N)C(=O)NC1CCSCC(C(=O)NC(Cc2ccc(OCCN)cc2)C(=O)NC(Cc2ccc3ccccc3c2)C(=O)NC2(C(=O)NC(CCC(=O)O)C(=O)NC(CC(N)=O)C(=O)NC(CC(N)=O)C(N)=O)CCOCC2)NC(=O)C(CCC(N)=O)NC(=O)C(Cc2c[nH]c3ccccc23)NC(=O)C(C(C)O)NC(=O)C(CCC(N)=O)NC1=O", "note": "(stereo not shown) [Peptide 993, Ac-[(D)-Arg]-cyclo[[Abu]-QTWQC]-[Phe[4-(2-aminoethoxy)]]-[2-Nal]-[4-amino-4-carboxy-tetrahydropyran]-ENN-NH2]", "values": [{"measurement": "fecal LCN2 concentration", "setting": "[1]", "result": "statistically significant decrease; also recorded: stastically significant decrease"}, {"measurement": "fecal MMP-9 concentration", "setting": "[1]", "result": "stastically significant decrease"}, {"measurement": "fecal MPO concentration", "setting": "[1]", "result": "statistically significant decrease; also recorded: stastically significant decrease"}, {"measurement": "miR-223-3p expression in the distal colon", "setting": "[2]; normalized to miR-16-5p", "result": "not statistically significant, however there was a marked reduction in the average expression of the group"}, {"measurement": "miR-223-3p expression in serum", "setting": "[2]; normalized to miR-24-3p", "result": "no apparent change"}, {"measurement": "S100A8 expression, distal colon", "setting": "[3]", "result": "not statistically significant, however there was a marked reduction in the average expression of the group"}, {"measurement": "relative expression of CLDN8, distal colon", "setting": "[3]", "result": "increase"}, {"measurement": "relative expression of LCN2, distal colon", "setting": "[3]", "result": "significant reduction"}, {"measurement": "abundance of IL-22 protein", "setting": "[4]; DSS rats, 61 mg/kg/day oral, distal colon, ELISA", "result": "significant decreases"}, {"measurement": "relative expression of gene encoding IL-17A", "setting": "[4]; [5]", "result": "significant decreases"}, {"measurement": "relative expression of gene encoding IL-17F", "setting": "[4]; [5]", "result": "significant decreases"}, {"measurement": "relative expression of gene encoding IL-22", "setting": "[4]; [5]", "result": "significant decreases"}, {"measurement": "mRNA and/or protein levels of IL-23-directed cytokines in the distal colons", "setting": "[4]; DSS-treated rats, 61 mg/kg/day PO TID + in drinking water, day five, vs vehicle", "result": "significant reduction"}]}
